Experiments:
[1] = system: harmful plants such as Stellaria media, Lolium multiflorum, Amaranthus retroflexus, Sinapis alba, Avena sativa and Setaria viridis; assay: Pre-emergence effect on weeds (greenhouse pot test, visual scoring); type: in vivo; conditions: applied pre-emergence at an application rate of 1 kg or less of active substance per hectare; scored visually after 3 to 4 weeks vs untreated controls;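 also: scored as plant damage or reduced emergence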
Text: 1 Pre-emergence Effect on Weeds
Seeds or rhizome pieces of monocotyledonous and dicotyledonous weeds plants are placed in sandy loam soil in plastic pots and covered with soil. The compounds according to the invention which are formulated in the form of wettable powders or emulsion concentrates are then applied to the surface of the soil cover in the form of an aqueous suspension or emulsion at an application rate of 600 to 800 l of water/ha (converted), in various dosages.

[2] = system: harmful plants such as Sinapis alba, Echinochloa crus- galli, Lolium multiflorum, Stellaria media, Cyperus iria, Amaranthus retroflexus, Setaria viridis and …; assay: Post-emergence effect on weeds (greenhouse pot test, visual scoring); type: in vivo; conditions: applied post-emergence (three-leaf stage) at an application rate of 1 kg and less of active substance per hectare; scored visually after about 3 to 4 weeks vs untreated controls
Description: 2. Post-emergence Effect on Weeds
Seeds or rhizome pieces of monocotyledonous and dicotyledonous weeds are placed in sandy loam soil in plastic pots, covered with soil and grown in the greenhouse under good growth conditions. Three weeks after sowing, the test plants are treated in the three-leaf stage. The compounds according to the invention which are formulated as wettable powders or as emulsion concentrates are sprayed in various dosages on the green parts of the plants at an application rate of 600 to 800 l of water/ha (converted). After the test plants have remained in the greenhouse for about 3 to 4 weeks under ideal growth conditions, the effect of the preparations is scored visually by comparison with untreated controls. The agents according to the invention also have a good herbicidal post-emergence action against a broad range of economically important grass weeds and dicotyledonous weeds.

SMILES	herbicidal action against harmful plants, pre-emergence [1]	herbicidal action against harmful plants, post-emergence [2]
CC(C)(F)c1nc(N)nc(NC(CCCc2cccc(F)c2)C2CC2)n1 (stereo not shown) [Example 22-24]	very good herbicidal action	very good herbicidal action
CC(C)c1nc(N)nc(NC(CCCc2cccc(F)c2)C2CC2)n1 (stereo not shown) [Example 22-25]	very good herbicidal action	very good herbicidal action
Cc1cccc(CCCC(Nc2nc(N)nc(C(C)C)n2)C2CC2)c1 (stereo not shown) [Example 22-26]	very good herbicidal action	very good herbicidal action
Cc1cccc(CCCC(Nc2nc(N)nc(C(C)(C)F)n2)C2CC2)c1 (stereo not shown) [Example 22-27]	very good herbicidal action	very good herbicidal action
Cc1cc(C)cc(CCCC(Nc2nc(N)nc(C(C)(C)F)n2)C2CC2)c1 (stereo not shown) [Example 22-28, 2-Amino-4-(1-fluoro-1-methylethyl)-6-[4-(3,5-dimethylphenyl)-1-cyclopropyl-1-butylamino]-1,3,5-triazine]	very good herbicidal action	very good herbicidal action
COc1cccc(CCCC(Nc2nc(N)nc(C(C)C)n2)C2CC2)c1 (stereo not shown) [Example 22-29]	very good herbicidal action	very good herbicidal action
COc1cccc(CCCC(Nc2nc(N)nc(C(C)(C)F)n2)C2CC2)c1 (stereo not shown) [Example 22-30]	very good herbicidal action	very good herbicidal action
CC(C)c1nc(N)nc(NC(CCCc2ccccc2)C2CCC2)n1 (stereo not shown) [Example 28-4]	very good herbicidal action	very good herbicidal action
CC(C)Cc1nc(N)nc(NC(CCCc2ccccc2)C2CCC2)n1 (stereo not shown) [Example 28-5]	very good herbicidal action	very good herbicidal action
CC(C)(F)c1nc(N)nc(NC(CCCc2ccccc2)C2CCC2)n1 (stereo not shown) [Example 28-10]	very good herbicidal action	very good herbicidal action
CC(C)c1nc(N)nc(NC(CCCc2cccc(Cl)c2)C2CCC2)n1 (stereo not shown) [Example 28-13]	very good herbicidal action	very good herbicidal action
CC(C)(F)c1nc(N)nc(NC(CCCc2cccc(Cl)c2)C2CCC2)n1 (stereo not shown) [Example 28-14]	very good herbicidal action	very good herbicidal action
Cc1cccc(CCCC(Nc2nc(N)nc(C(C)C)n2)C2CCC2)c1 (stereo not shown) [Example 28-17]	very good herbicidal action	very good herbicidal action
COc1cccc(CCCC(Nc2nc(N)nc(C(C)C)n2)C2CCC2)c1 (stereo not shown) [Example 28-20]	very good herbicidal action	very good herbicidal action
COc1cccc(CCCC(Nc2nc(N)nc(C(C)(C)F)n2)C2CCC2)c1 (stereo not shown) [Example 28-21]	very good herbicidal action	very good herbicidal action
CC(C)c1nc(N)nc(NC(CCCCc2ccccc2)C2CC2)n1 (stereo not shown) [Example 30-1]	very good herbicidal action	very good herbicidal action
CC(C)(F)c1nc(N)nc(NC(CCCCc2ccccc2)C2CC2)n1 (stereo not shown) [Example 30-2]	very good herbicidal action	very good herbicidal action
